Values joined by “and” are separate entries in the source; they are usually repeats but may differ in a detail not shown here. Identical values can stand only once.
Key:
[1] = tested on: human liver carcinoma (HepG-2); assay: MTT cytotoxicity, HepG-2; type: cell-based
Excerpt: (§1) Three human tumorous cell lines—human colon carcinoma (HCT-116), human liver carcinoma (HepG-2), and human breast adenocarcinoma (MCF-7)—were subjected to cytotoxic behavior, employing the MTT analysis. Moreover, a normotoxicity assessment was employed against normal Vero cell line (African Green Monkey Kidney cells) for selected active compounds to determine their therapeutic safety. […] The inhibitory performance of derivatives 1a–e, 2a–e, 7a–g, 8, and 11a–e, and its derived relation to the cell proliferation of these three cancers, are described in Table 1 and Figure 2. […] Characteristically, the inhibitory activity was enhanced via incorporating the azo moieties in compounds 2a–b.
(§2) The cytotoxic activity was appraised using the 3-(4,5-dimethylthiazol-2-yl)-2,5-diphenyl-tetrazolium bromide (MTT) colorimetric assay as reported previously.

[2] = tested on: human breast adenocarcinoma (MCF-7); assay: MTT cytotoxicity, MCF-7; type: cell-based
Excerpt: as §1, §2

[3] = tested on: human colon carcinoma (HCT-116); assay: MTT cytotoxicity, HCT-116; type: cell-based; details: HCT-116 cells
Excerpt: as §1, §2

[4] = tested on: normal Vero cell line (Vero CCL-81); assay: Normotoxicity assessment, normal Vero cell line; type: cell-based, African Green Monkey; details: Chlorocebus sabaeus; normal Vero CCL-81 cells, cytotoxicity
Excerpt: as §1, §2

EGFR = target: T1, EGFR (Homo sapiens, UniProt P00533); assay: EGFR kinase assay kit inhibition; type: biochemical
T1 construct: purchased BPS Bioscience 40321
Procedure: After ADP is converted into ATP, ATP can be used as the substrate of the luciferase-catalyzed reaction to generate an optical signal, which is positively correlated with kinase activity. […] The plate was incubated at 30 °C for 40 min.

cytosolic hCA II = target: T2, cytosolic hCA II (Bos taurus, UniProt P00921); assay: CA-II inhibition assay (esterase activity, 4-NPA); type: biochemical, bovine; details: reduction in esterase activity, 4-NPA substrate; read-out: IC50 against hCA II
T2 construct: purchased Sigma–Aldrich C2624
Procedure: The CA-II inhibition assay for the analyzed molecules was performed based on the measurement of the reduction in esterase activity on the substrate p-nitrophenyl acetate (4-NPA). Briefly, the total mixture volume was 200 µL in a well containing 140 µL (20 mM HEPES) Tris buffer (pH 7.4), 20 µL of the enzyme (from bovine, Sigma–Aldrich, C2624, St. Louis, MO, USA), and 20 µL (0.5 mg/mL in DMSO) of the investigated derivatives, which were mixed and incubated at 25 °C for 15 min. […] The results, attained after the reactions were completed in triplicate, were quantified by the equation given below. The percent inhibition for each sample was calculated as Inhibition (%) = [(C − T)/C] × 100, where C (i.e., control) = total enzyme activity without inhibitor and T (i.e., test sample) = activity in the presence of test compound.

MMP-2 = target: T3, MMP-2 (Homo sapiens, UniProt P08253); assay: MMP-2 Inhibitor Screening Assay Kit (colorimetric); details: for IC50: IC50 on MMP-2, MMP-2 inhibitor screening kit; for anti-MMP-2 inhibition at the first concentration: first concentration of two-fold serial dilutions
T3 sequence (P08253 110-660): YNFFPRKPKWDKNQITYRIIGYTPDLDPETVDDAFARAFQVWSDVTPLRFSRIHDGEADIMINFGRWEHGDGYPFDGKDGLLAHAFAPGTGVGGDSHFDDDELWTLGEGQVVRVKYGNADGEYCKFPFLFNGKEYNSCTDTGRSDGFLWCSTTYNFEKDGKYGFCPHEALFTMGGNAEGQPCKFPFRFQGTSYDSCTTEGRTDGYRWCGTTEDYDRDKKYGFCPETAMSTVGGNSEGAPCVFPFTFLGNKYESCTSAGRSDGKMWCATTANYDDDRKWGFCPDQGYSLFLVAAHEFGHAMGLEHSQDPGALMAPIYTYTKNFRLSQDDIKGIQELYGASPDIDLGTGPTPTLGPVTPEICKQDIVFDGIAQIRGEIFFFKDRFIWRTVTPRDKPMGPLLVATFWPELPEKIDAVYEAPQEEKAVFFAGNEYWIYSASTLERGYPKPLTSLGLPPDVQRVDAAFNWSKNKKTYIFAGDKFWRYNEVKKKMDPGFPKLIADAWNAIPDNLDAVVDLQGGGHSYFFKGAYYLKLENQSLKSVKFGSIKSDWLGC

[5] = Homo sapiens, HepG2, HepG-2 cells
[6] = Homo sapiens, MCF7, MCF-7 cells

T2 sequence (P00921 whole entry): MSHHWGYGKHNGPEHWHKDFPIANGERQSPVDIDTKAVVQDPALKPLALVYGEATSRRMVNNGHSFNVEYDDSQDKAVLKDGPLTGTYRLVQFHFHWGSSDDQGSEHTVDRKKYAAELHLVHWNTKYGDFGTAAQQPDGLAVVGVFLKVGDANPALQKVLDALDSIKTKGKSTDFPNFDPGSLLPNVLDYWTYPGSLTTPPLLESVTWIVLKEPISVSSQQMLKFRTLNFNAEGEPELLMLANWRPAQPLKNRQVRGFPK
T1 sequence (P00533 25-1210): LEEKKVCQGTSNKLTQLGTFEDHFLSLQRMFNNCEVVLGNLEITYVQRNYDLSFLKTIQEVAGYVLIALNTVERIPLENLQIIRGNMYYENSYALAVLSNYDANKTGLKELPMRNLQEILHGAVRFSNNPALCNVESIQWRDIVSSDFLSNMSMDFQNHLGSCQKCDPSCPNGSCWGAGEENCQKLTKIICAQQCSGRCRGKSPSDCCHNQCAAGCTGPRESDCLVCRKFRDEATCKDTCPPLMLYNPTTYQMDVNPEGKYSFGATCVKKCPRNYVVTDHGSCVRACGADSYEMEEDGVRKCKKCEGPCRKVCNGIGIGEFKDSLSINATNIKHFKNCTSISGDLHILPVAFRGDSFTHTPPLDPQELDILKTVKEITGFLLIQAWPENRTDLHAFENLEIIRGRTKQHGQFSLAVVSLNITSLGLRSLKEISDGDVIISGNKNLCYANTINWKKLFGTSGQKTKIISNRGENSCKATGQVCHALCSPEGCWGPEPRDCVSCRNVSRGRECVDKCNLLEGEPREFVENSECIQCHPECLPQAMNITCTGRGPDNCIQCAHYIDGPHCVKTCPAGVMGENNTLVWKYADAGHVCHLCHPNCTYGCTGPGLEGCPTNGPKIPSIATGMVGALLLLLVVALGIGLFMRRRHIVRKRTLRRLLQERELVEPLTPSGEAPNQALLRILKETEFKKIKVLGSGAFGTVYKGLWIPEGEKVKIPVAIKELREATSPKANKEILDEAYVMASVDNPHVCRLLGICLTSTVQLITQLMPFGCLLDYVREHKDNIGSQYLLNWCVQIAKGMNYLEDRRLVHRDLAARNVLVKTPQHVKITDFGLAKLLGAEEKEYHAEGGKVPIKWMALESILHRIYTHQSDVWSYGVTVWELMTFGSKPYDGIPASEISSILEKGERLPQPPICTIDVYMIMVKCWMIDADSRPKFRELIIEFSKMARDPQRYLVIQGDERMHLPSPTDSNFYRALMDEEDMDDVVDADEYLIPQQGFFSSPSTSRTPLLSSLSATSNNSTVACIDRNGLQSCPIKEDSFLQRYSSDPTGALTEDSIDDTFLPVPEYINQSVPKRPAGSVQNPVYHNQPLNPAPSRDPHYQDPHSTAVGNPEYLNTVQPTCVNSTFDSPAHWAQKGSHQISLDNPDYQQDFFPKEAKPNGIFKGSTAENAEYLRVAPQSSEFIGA

Row | IC50 (EGFR) [µM] | IC50 (cytosolic hCA II) [µM] | IC50 (MMP-2) | anti-MMP-2 inhibition at the first concentration (MMP-2) | Structure (SMILES) | IC50 [1, 5] [µM] | IC50 [2, 6] [µM] | IC50 ([3]; Homo sapiens) [µM] | IC50 [4] [µM] | IC50 ([1]; HepG-2 cells) [µM] | IC50 (µM) HCT-116 [3] | IC50 ([2]; MCF-7 cells) [µM] | IC50 [3] [µM]
1 |  |  |  |  | CCOC(=O)C1=C(N/C(=C(/C#N)C(=O)OCC)c2ccc(C)cc2)Oc2cc(O)c(/N=N/c3ccc(S(=O)(=O)Nc4cc(C)no4)cc3)cc2C1c1ccc(C)cc1 (centres unmarked) [11e] | 17.3 ± 1.06 | 23.6 ± 2.05 | 18.4 ± 1.19 | 162 ± 6.48 |  |  |  | 
2 |  |  |  |  | CCOC(=O)C1=C(N/C(=C(/C#N)C(=O)OCC)c2ccc(C)cc2)Oc2cc(O)c(/N=N/c3ccc(S(=O)(=O)NC(=N)N)cc3)cc2C1c1ccc(C)cc1 (centres unmarked) [11c] | 73.8 ± 2.89 | 105 ± 5.78 | 79.5 ± 3.65 | 328 ± 8.26 |  |  |  | 
3 |  |  |  |  | COc1cccc2c1C(=O)c1c(O)c3c(c(O)c1C2=O)C[C@@](O)(C(=O)CO)C[C@@H]3O[C@H]1C[C@H](N)[C@H](O)[C@H](C)O1 [Doxorubicin, reference compound] | 0.66 ± 0.02 | 0.64 ± 0.03 | 0.9 ± 0.07 |  |  |  |  | 
4 |  |  |  |  | CCOC(=O)C1=C(N)Oc2cc(O)c(/N=N/c3ccc(S(N)(=O)=O)cc3)cc2C1c1ccc(F)cc1 (centres unmarked) [7e] | 2.92 ± 3.52 | 6.15 ± 1.23 | 8 ± 3.45 |  |  |  |  | 
5 | 12.7 | 164 | ~64.8 µM and 64.8 µM | approximately 80.93% | CCOC(=O)C1=C(N)Oc2cc(O)c(/N=N/c3ccc(S(N)(=O)=O)cc3)cc2C1c1ccc(Cl)cc1 (centres unmarked) [7f] | 1.63 | 3.93 ± 0.09 | 3.57 ± 0.11 |  | 1.74 ± 0.07 | good potency |  | 
6 | 23.4 | 301 | ~113 µM and 113 µM | ~73.89% | CCOC(=O)C1=C(N)Oc2cc(O)c(/N=N/c3ccc(S(N)(=O)=O)cc3)cc2C1c1ccccc1 (centres unmarked) [7a] | 3.92 ± 0.09 | 13.05 ± 0.12 | 6.82 ± 0.19 |  |  |  |  | 
7 |  |  |  |  | CCOC(=O)C1=C(N/C(=C(/C#N)C(=O)OCC)c2ccc(C)cc2)Oc2cc(O)c(/N=N/c3ccc(S(N)(=O)=O)cc3)cc2C1c1ccc(C)cc1 (centres unmarked) [11a] | 32.2 ± 1.79 | 20.8 ± 1.38 | 12.2 ± 0.96 | 139 ± 5.26 |  |  |  | 
8 |  | 711 |  |  | CCOC(=O)C1=C(N)Oc2cc(O)c(/N=N/c3ccc(S(N)(=O)=O)cc3)cc2C1c1ccc(C)cc1 (centres unmarked) [7b] | 51.9 | 29.5 ± 3.29 | 17.3 ± 4.29 |  | 45.7 ± 2.88 |  |  | 
9 |  | 267 |  |  | CCOC(=O)C1=C(N/C(=C(/C#N)C(=O)OCC)c2ccc(C)cc2)Oc2cc(O)c(/N=N/c3ccc(S(=O)(=O)Nc4nccs4)cc3)cc2C1c1ccc(C)cc1 (centres unmarked) [11d] | 4.71 ± 0.47 | 9.13 ± 0.93 | 6.32 ± 0.68 | 278 ± 6.45 |  |  |  | 
10 |  |  |  |  | CCOC(=O)C1=C(N)Oc2cc(O)c(/N=N/c3ccc(S(N)(=O)=O)cc3)cc2C1c1ccc(OC)cc1 (centres unmarked) [7c] | 34.9 | 104 ± 2.65 | 70.8 ± 1.85 |  | 51.8 ± 1.02 |  |  | 
11 |  |  |  |  | CCOC(=O)C1=C(N)Oc2cc(O)c(/N=N/c3ccc(S(N)(=O)=O)cc3)cc2C1c1ccc([N+](=O)[O-])cc1 (centres unmarked) [7d] | 45.9 | 97.9 ± 3.08 | 114 ± 5.34 |  | 34.9 ± 2.79 |  |  | 
12 |  |  |  |  | CCOC(=O)C1=C(N/C(=C(/C#N)C(=O)OCC)c2ccc(C)cc2)Oc2cc(O)c(/N=N/c3ccc(S(=O)(=O)NC(C)=O)cc3)cc2C1c1ccc(C)cc1 (centres unmarked) [11b] | 147 ± 6.41 | 66 ± 3.91 | 39.3 ± 2.63 |  |  |  |  | 
13 |  | 314 |  |  | CCOC(=O)C1=C(N)Oc2cc(O)c(/N=N/c3ccc(S(N)(=O)=O)cc3)cc2C1c1ccc(Cl)cc1Cl (centres unmarked) [7g] | 1.74 | 1.72 ± 2.5 | 1.74 ± 4.06 |  | 1.63 ± 2.36 | good potency |  | 
14 |  |  |  |  | N.N.[Cl][Pt][Cl] [Cisplatin, reference compound] |  |  |  |  | 10.9 ± 0.19 |  | 14.66 ± 0.03 | 8.36 ± 0.07
15 |  |  | ~12.3 µM and 12.3 µM |  | CNC(=O)c1cc(Oc2ccc(NC(=O)Nc3ccc(Cl)c(C(F)(F)F)c3)cc2)ccn1 [Sorafenib, reference compound] |  |  |  |  |  |  |  | 

From PMC10706804, “Synthesis and Characterization of a New Class of Chromene-Azo Sulfonamide Hybrids as Promising Anticancer Candidates with the Exploration of Their EGFR, hCAII, and MMP-2 Inhibitors Based on Molecular Docking Assays” (International Journal of Molecular Sciences, 2023)
